Source: publication PMC4726189, “Blocking protein phosphatase 2A signaling prevents endothelial-to-mesenchymal transition and renal fibrosis: a peptide-based drug therapy” (Scientific Reports, 2016)

Assays:
PP2A [1] = details: inhibition of PP2A by okadaic acid; cited from earlier work
Source text: The vast majority of biological processes, including renal fibrosis, are regulated by the balance between the activities of kinases and phosphatases. The significance of kinases has been intensively discussed in kidney disease for decades, however, the roles of phosphatases remain poorly understood. Protein phosphatase 2A (PP2A) is a ubiquitously expressed protein serine/threonine phosphatase that accounts for a large fraction of phosphatase activity in eukaryotic cells. As a heterotrimer, PP2A is composed of three subunits: a catalytic C subunit (PP2Ac), a structural A subunit (PP2Aa) ...

HUVECs [2] = assay: TGF-β1-induced EndMT in HUVECs, western blot of VE-cadherin and α-SMA; type: cell-based, human; details: n ≥ 3
Description: (§1) Human umbilical vein endothelial cells (HUVECs, ATCC) were cultured in RPMI-1640 (Gibco) supplemented with 10% fetal bovine serum (FBS, HyClone). When 30% confluent, cells were cultured in serum-free medium before recombinant human TGF-β1 (10 ng/ml; Peprotech) treatment. In some experiments, cells were pretreated with PP2A inhibitor OA (10 nM; Sigma) for 1 h before the addition of TGF-β1. For all cell stimulations, n ≥ 3 independent experiments were performed.
Renal tissues or cells were harvested and centrifuged at 12,000 g to remove cell debris. Protein concentration was measured using a BCA assay kit (Pierce). Eighty micrograms of protein was subjected to SDS-PAGE and transferred onto polyvinylidene difluoride membranes. After transfer, the membranes were blocked and blotted routinely with antibodies against VE-cadherin (BD Biosciences), α-SMA (Abcam), collagen1 (Abcam), PP2Ac (Cell Signaling Technology), occludin (Invitrogen), P-threonine/P-serine (Santa Cruz), nitrotyrosine (Cayman), acetylated-lysine (Cell Signaling Technology), phosphotyrosine (PY-20,Biolgend), PP2A,C subunit, demethylated (Millipore), vimentin (Boster) and CD31 (Proteintech). The immunolabeled proteins were detected by enhanced chemiluminescence (Pierce).The density of the bands was analyzed by Quantity One software (Bio-Rad).

occludin = assay: Serine/threonine phosphorylation of occludin in immunoprecipitates from TGF-β1-treated HUVECs; type: cell-based, human; details: n ≥ 3
Description: as §1
Cell lysates were centrifuged at 12,000g for 30 min at 4 °C. Approximately 1 mg of each lysate was incubated overnight at 4 °C with 2 μg of anti-occludin, anti-PP2Ac or IgG antibody (a negative control), followed by incubation with Protein A/G-Agarose for 1 hr to capture immunoprecipitates. Bead complexes were washed four times in lysis buffer and then resuspended in 2 × SDS buffer and heated for 10 min at 90 °C. Lysates were electrophoresed, transferred to PVDF filters, and subsequently immunoblotted with antibodies.

HUVECs [3] = assay: Cellular uptake of FITC-labeled peptide in HUVECs; type: cell-based, human; details: fluorescence, n=3
Description: To further confirm the hypothesis, PP2Ac mimic peptides (Y127WT,Y130WT,Y265WT, Y267WT,Y284WT) were designed to assess the significance of Tyr127 and other Tyr sites on TGF-β1-driven EndMT. To enhance the penetration of synthetic peptides, a cell-permeable peptide transactivator of transcription (TAT) was used[20][21]. The conjugated peptide TAT-Y127WT was labeled with fluorescein isothiocyanate (FITC) and analyzed for cellular uptake. […] Thus, at the dose of 10 μM, we investigated the anti-EndMT effects of TAT-Y127WT compared with the other four peptides.
(§2) Figure S2. The penetration and cytotoxicity of TAT-Y127WT to HUVECs.
(§3) HUVECs were incubated with various concentrations (0,1,5,10,20,or 50μM) of TAT-Y127WT. Cytotoxicity was measured with the CCK-8 assay. (c)
(§4) Immunofluorescence distribution of TAT-Y127WT and cell morphology. Nuclei were counterstained with DAPI (blue). n=3. Scale bars, 20μm.
(§5) Supplementary Methods: Mass Spectrometry Experiments
Protein Digestion-The protein bands were digested according to an in-gel digestion procedure. The gels were dried in a vacuum centrifuge. Briefly, the in-gel proteins were reduced with dithiothreitol (10 mM DTT/100 mM NH4HCO3 ) for 30 min at 56°C, then alkylated with iodoacetamide (200 mM IAA/100 mM NH4HCO3) in the dark at room temperature for 30 minutes. Gel pieces were briefly rinsed with 100 mM NH4HCO3 and ACN. […]

[4] = Whole-body and ex vivo organ fluorescence imaging of FITC-labeled peptide in mice; set-up: species or system C57/B mice
Description: FITC-loaded peptides were injected through the tail vein or intraperitoneally administered into C57/B mice at a dose of 5 nmol/g of body weight. Whole body fluorescence imaging was performed using an in vivo imaging system (IVIS Spectrum, Caliper, USA) at 0, 0.5, 4 or 24 h post-injection. Subsequently, the mice were sacrificed, and their organs such as the liver, spleen, kidneys, heart, and lung were excised and subjected to ex vivo fluorescence imaging. At the same time, 1 mL of blood was drawn from the retro-orbital sinus after injection at different time points.

HUVECs [5] = assay: Cytotoxicity to HUVECs, CCK-8 assay; type: cell-based, human; details: approximately 5–10 μM (0, 1, 5, 10, 20 or 50 μM tested), n=3
Description: as §2, §3, §4, §5
Protein Digestion-The protein bands were digested according to an in-gel digestion procedure. The gels were dried in a vacuum centrifuge. Briefly, the in-gel proteins were reduced with dithiothreitol (10 mM DTT/100 mM NH4HCO3 ) for 30 min at 56°C, then alkylated with iodoacetamide (200 mM IAA/100 mM NH4HCO3) in the dark at room temperature for 30 minutes. Gel pieces were briefly rinsed with 100 mM NH4HCO3 and ACN. Gel pieces were digested overnight in 12.5 ng/μl trypsin in 25 mM NH4HCO3. The peptides were extracted three times with 60% ACN/0.1% TFA.
The extracts were pooled and dried completely by a vacuum centrifuge.
Identification of the Modification Sites-Experiments were performed on a Q Exactive mass spectrometer that was coupled to Easy nLC (Proxeon Biosystems, now Thermo Fisher Scientific). Approximately 3 μl of the sample was injected for nanoLC-MS/MS analysis. The peptide mixture (1 μg) was loaded onto the C18-reversed phase column
(1 picture or pasted object on this page, not shown here)

PP2A [6] = details: cited from earlier work
Source text: (§6) Therefore, blocking PP2Ac Tyr127 nitration is considered a potential therapeutic approach. […] Peptide-based drugs have garnered much attention because of their high potencies of action and relatively few off-target side-effects[52][53].

Caco-2 Cells = details: cited from earlier work
Source text: as §6

[7] = OA 10 nM for 1 h before TGF-β1 10 ng/ml
[8] = FITC-labeled peptide, tail vein injection, ex vivo organ imaging at different time points

Description for UUO mice: Mice aged 6–8 weeks were grouped as sham-operated, UUO, UUO +TAT-Y127WT and UUO + TAT-Y127Scr and tail vein injected 1d before surgery. To perform UUO surgery, mice were anesthetized with ketamine hydrochloride (80 mg/kg body weight, intraperitoneally) before surgery and the left kidney was exposed through a flank incision and the left ureter tied off at the level of the lower pole of the kidney with two 4.0 silk ties. All mice were euthanized at the end of the experiments after obstruction, and some kidney tissues were fixed with 4% paraformaldehyde. The remainder was frozen in liquid nitrogen for later use.
Four-micrometer-thick paraffin sections were incubated with primary antibodies overnight at 4 °C and were then incubated with biotinylated goat anti-rabbit IgG or goat anti-mouse IgG for 45 min followed by diaminobenzidine (DAKO) staining. All sections were examined under a light microscope (Olympus BX-50) and digitized with a high-resolution camera. For immunofluorescence studies, after incubated with primary antibody, sections (including serial sections) were incubated with FITC- or CY3-conjugated goat antibody (Jackson ImmunoResearch) for 45 min at 37 °C and then counterstained with DAPI (Vector Laboratories) and analyzed by confocal laser scanning microscopy. 3D reconstructed technology was based on confocal laser-scanning microscopy and analyzed by the software (LAS-AF-Lite 2.6.3). PTC density was analyzed as described with some modifications[56].

C=C1[C@@H](O)[C@@H]2O[C@]3(CC[C@H](/C=C/[C@@H](C)[C@@H]4CC(C)=C[C@@]5(O[C@H](C[C@@](C)(O)C(=O)O)CC[C@H]5O)O4)O3)CC[C@H]2O[C@@H]1[C@@H](O)C[C@H](C)[C@H]1O[C@@]2(CCCCO2)CC[C@H]1C [OA, okadaic acid, reference compound]
effect of PP2A on thrombin- or nocodazole-induced changes in EC cytoskeleton (PP2A [1]): abolished
VE-cadherin expression (HUVECs [2]; [7]): maintained
α-SMA expression induced by TGF-β1 (HUVECs [2]; [7]): markedly attenuated
TGF-β1-induced decrease of phosphorylated serine and threonine residues in occludin immunoprecipitates (occludin; pretreatment with OA 10 nM for 1 h): significantly dampened

ITQVYGFYD [TAT-Y127WT, mimic peptide derived from PP2Ac conjugating a cell penetrating peptide (CPP: TAT)]
cell transduction (HUVECs [3]; 10 μM): effectively transduces cells
cell penetration (HUVECs [3]; FITC-labeled peptide, approximately 5–10 μM): efficient cell penetration
density of peritubular capillaries (UUO mice; 5 nmol/g per day, CD31+ PTC numbers per visual field, n = 8): preserved density
number of CD31+/α-SMA+ areas in the interstitium (EndMT level) (UUO mice; 5 nmol/g per day, confocal microscopy, n = 8): dramatically decreased
excessive extracellular matrix (ECM) production, α-SMA and vimentin deposition (UUO mice; 5 nmol/g per day, immunohistochemical staining, n = 8): attenuated
PP2Ac nitration (UUO mice; administration of the peptide): significantly reduces
time to disappearance of the fluorescence signal after injection ([4]; FITC-labeled peptide 5 nmol/g intravenously, whole-body imaging at 0, 0.5, 4, 24 h and blood samples (n = 6)): ≤ 24 h
fluorescence in heart and lung [4, 8]: small signal
fluorescence in kidney and liver [4, 8]: strongly detected
fluorescence in spleen [4, 8]: no signal
potency to inhibit TGF-β1-induced VE-cadherin decrease and α-SMA increase (HUVECs [2]; peptide 10 μM, TGF-β1, 72 h, compared with the other four peptides): higher potency
increase of α-SMA (HUVECs [2]; pretreatment with peptide, TGF-β1, 72 h): inhibited
serine and threonine phosphorylation of occludin (occludin; TGF-β1, 72 h, compared with TAT-Y127Scr treatment): significantly increased
cytotoxicity to HUVECs (HUVECs [5]): low cytotoxicity

TPDYFL
PP2A translocation in cardiac myocytes (PP2A [6]): attenuate
acetaldehyde-induced tight junction disruption and barrier dysfunction (Caco-2 Cells): prevented
